According to patent US10888511B2, “Methods and articles of manufacture for the treatment of skin” (Advanced Collagen Science LLC, priority 2013, dated 2021):

Assays:
[1] = tested on: Human Skin (Hand and Temple); experiment: Acetylation of human skin (hand and temple) following dermabrasion, in ethanol or anhydrous alcohol; assay type: in vivo; settings: 50 mg/mL in ethanol or anhydrous alcohol, 1 minute, after dermabrasion, up to 5 treatments
Description: (§1) In this example, glutaric anhydride was applied to temporal defects adjacent to periorbital areas. Skin defects were first subject to gentle dermabrasion followed by application of 0.1M disodium phosphate solution, pH 8.3 for 30 seconds using surgical gauze. Glutaric anhydride (50 mg/mL) was dissolved in ethanol or anhydrous alcohol and applied to the defects for 1 minute using surgical gauze. Treatment sites were then rinsed with 0.1M phosphate buffered saline, pH 7.2. Up to 5 treatments were made to specific skin sites.

Human Skin [2] = experiment: Acetylation of human skin using glutaric anhydride in alkaline EDTA solution following pretreatment with alkaline EDTA solution; assay type: in vivo; settings: powder on gauze flushed with 0.035M disodium EDTA pH 9.0, upper cheek
Source text: In this example, glutaric anhydride was applied to the cheek. An area of the upper cheek, below the eye, was pretreated with pH adjusted 0.035M disodium EDTA (pH 9.0) applied using a gauze pad. Glutaric anhydride powder was finely ground using a mortar and pestle and rubbed into a second gauze pad. The gauze was placed on the treatment area and flushed with pH adjusted 0.035M disodium EDTA (pH 9.0) to deliver the glutaric anhydride to the treatment site as it dissolved in the EDTA solution. […] Two such applications were performed.

Human Skin [3] = experiment: Acetylation of human skin using glutaric anhydride in pH adjusted vegetable oil without dermabrasion; assay type: in vivo; settings: 30 mg/mL dispersed in vegetable oil adjusted to pH 9.0, 1 minute, one treatment, no dermabrasion
Description: (§2) In this example, glutaric anhydride was applied to temporal defects adjacent to periorbital areas. Skin defects were pretreated by application of 0.1M disodium phosphate solution, pH 8.3 for 30 seconds using surgical gauze. Glutaric anhydride powder (30 mg/mL) was dispersed in vegetable oil adjusted to a pH of 9.0 using 10N NaOH and gently applied to the wet defects for 1 minute using surgical gauze. The treatment sites were then rinsed with 0.1M phosphate buffered saline, pH 7.2. Only one treatment was made to temporal skin sites.

Human Skin [4] = experiment: Acetylation of human skin using glutaric anhydride in pH adjusted vegetable oil following micro-needle roller treatment; assay type: in vivo; settings: 40 mg/mL in vegetable oil adjusted to pH 9.1, forearm, 1 minute
Description: In this example, glutaric anhydride was applied to the forearm. A skin area approximately 4 mm×4 mm was punctured using a micro-needle roller, followed by pretreated with 0.1M disodium phosphate solution, pH 8.3 for 30 seconds using cotton swab. Glutaric anhydride powder (40 mg/mL) was dispersed in vegetable oil that was adjusted to a pH of 9.1 using granules of sodium hydroxide powder and gently applied to the pre-treated skin area for 1 minute using a cotton swab. The sites were rinsed using an alcohol swab.

Human Skin [5] = experiment: Acetylation of human skin following dermabrasion (aqueous buffer); assay type: in vivo; settings: 20 mg/mL in 0.3M disodium phosphate pH 8.9, after gentle dermabrasion, temporal defects
Description: In this example, glutaric anhydride was applied to temporal defects adjacent to periorbital areas. Skin defects were first subject to gentle dermabrasion followed by application of 0.1M disodium phosphate solution, pH 8.3 for 30 seconds using surgical gauze. Glutaric anhydride (20 mg/mL) was mixed in 0.3M disodium phosphate solution at pH 8.9 and immediately (less than 5 seconds after dissolution) applied to the defects for 30 seconds to 1 minute using surgical gauze. Treatment sites were then rinsed with 0.1M phosphate buffered saline, pH 7.2. Pre-treatment and post-treatment photos were taken and the results evaluated.

Human Skin [6] = experiment: Acetylation of human skin using alcohol penetration enhancer; assay type: in vivo; settings: 50 mg/mL in ethanol, 1 minute, no dermabrasion, up to 5 treatments
Description: as §1, with “pretreated” for “first subject to gentle dermabrasion followed”, “ethanol” for “ethanol or anhydrous alcohol”, “sites” for “sites.”

Human Skin (Temple Area) = experiment: Acetylation of human skin (temple area) following dermabrasion, in ethanol; assay type: in vivo; settings: 50 mg/mL in ethanol, approximately 0.25 mL aliquots, 1 minute, after dermabrasion, up to 5 treatments
Description: as §1, with “ethanol. Aliquots of approximately 0.25 mL were” for “ethanol or anhydrous alcohol and”, “sites” for “sites.”

Human Skin [7] = experiment: Acetylation of human skin without dermabrasion, micro-needle roll or penetration enhancers; assay type: in vivo; settings: 20 mg/mL in 0.3M disodium phosphate pH 8.9, 30 seconds to 1 minute, no dermabrasion
Description: In this example, the pre-treatment buffer, 0.1M disodium phosphate solution, pH 8.3, was applied for 30 seconds using surgical gauze. Glutaric anhydride (20 mg/mL) was mixed in 0.3M disodium phosphate solution at pH 8.9 and immediately (less than 5 seconds after dissolution) applied to the defects for 30 seconds to 1 minute using surgical gauze. Treatment sites were then rinsed with 0.1M phosphate buffered saline, pH 7.2. No effect on skin thickness or appearance was noted.

Human Skin [8] = experiment: Acetylation of human skin using glutaric anhydride powder without dermabrasion; assay type: in vivo; settings: powder (10 mg/mL) applied to wet defects, 1 minute, no dermabrasion, up to 5 treatments
Description: In this example, glutaric anhydride was applied to temporal defects adjacent to periorbital areas. Skin defects were pretreated by application of 0.1M disodium phosphate solution, pH 8.3 for 30 seconds using surgical gauze. Glutaric anhydride powder (10 mg/mL) was gently applied to the wet defects for 1 minute, or until the powder dissolved, using surgical gauze. The powder Treatment sites were then rinsed with 0.1M phosphate buffered saline, pH 7.2. Up to 5 treatments were made to specific skin sites

Human Skin [9] = experiment: Acetylation of human skin using glutaric anhydride in alkaline buffer solution following micro-needle roller treatment; assay type: in vivo; settings: 40 mg/mL in 0.3M disodium phosphate pH 9.1, forearm
Description: In this example, glutaric anhydride was applied to the forearm. A skin area approximately 4 mm×4 mm was punctured using a micro-needle roller, followed by pretreated with 0.1M sodium phosphate buffer, pH 8.3 for 30 seconds using cotton swab. Glutaric anhydride powder (40 mg/mL) was dissolved in 0.3M disodium phosphate solution, pH 9.1 and gently applied to the pre-treated skin area for 1 minute using a cotton swab. The sites were final rinsed using an alcohol swab.

Processed Human Dermis = experiment: Acetylation of processed human skin (epithelium removed): mechanical properties; settings: 100 mg/mL in dilute alkaline buffer pH 8.5, 1-minute treatment, vs specimen treated with buffer alone
Description: Processed human skin was obtained for treatment. The processed skin was comprised of lyophilized dermis. Two samples were tested, two 2 cm×4 cm specimens. One of specimens was treated with 100 mg/mL of glutaric anhydride. The second specimen was treated with buffer solution alone. The rejuvenation agent was prepared in dilute alkaline buffer solution, pH 8.5, quickly dissolved and applied to the dermis within 15 seconds. Prior to treatment with the active agent, skin specimens were pre-treated with buffer alone. Treatments were completed in 1-minute.

Human Skin [10] = experiment: Acetylation of human skin using glutaric anhydride in vegetable oil without dermabrasion; assay type: in vivo; settings: 30 mg/mL dispersed in vegetable oil, 1 minute, one treatment, no dermabrasion
Description: as §2, with “oil” for “oil adjusted to a pH of 9.0 using 10N NaOH”

[11] = after micro-needle roller, 1 minute

Sensation as the glutaric anhydride penetrated the skin (Human Skin [2]): slight burning or tingly sensation
Redness at the treatment site (Human Skin [2]; after gauze removed and site flushed): Some redness
Sensation at treated sites immediately after treatment and for sometime after (Human Skin [3]): mild tingly feeling
Sensation at treated sites immediately after treatment and for sometime after (Human Skin [4]): mild tingly feeling
Color of treated sites (Human Skin [4]; after micro-needle roller): slightly red
Sensation at treated sites immediately after treatment (Human Skin [9]; 1 minute): mild tingly feeling
Color of treated sites (Human Skin [9]; [11]): slightly red
Sensation at treated sites immediately after treatment and for sometime after (Human Skin [10]): mild tingly feeling
Structure (SMILES): O=C1CCCC(=O)O1 [glutaric anhydride]
Skin appearance (visual) [1]: visual improvement
Skin thickness at the treatment sites (tactile) [1]: tactile increase
Persistence of skin thickening (Human Skin [2]; after the second application): more than 2 weeks
Skin thickening at the treatment site (Human Skin [2]; after the second application): obvious minor skin thickening
Feel of application sites (Human Skin [3]): thicker and softer
Skin smoothness (visual) (Human Skin [3]): visual improvement
Skin thickness at the treatment sites (tactile) (Human Skin [3]): tactile increase
Feel of application site (Human Skin [4]; after micro-needle roller): felt thicker immediately after treatment and for several days later
Skin thickness at the treatment sites (tactile) (Human Skin [4]; after micro-needle roller): tactile increase
Appearance of skin defects (Human Skin [5]): improvement
Skin smoothness (visual) (Human Skin [6]): minor visual improvement
Skin thickness at the treatment sites (tactile) (Human Skin [6]): tactile increase
Skin smoothness (visual) (Human Skin (Temple Area)): visual improvement
Skin thickness at the treatment sites (tactile) (Human Skin (Temple Area)): tactile increase
Effect on skin thickness or appearance (Human Skin [7]): No effect
Skin smoothness (visual) (Human Skin [8]): No visual improvement
Tactile increase in skin at the treatment sites (Human Skin [8]): a tactile increase in skin as observed
Feel of application site (Human Skin [9]; [11]): felt slightly thicker immediately after treatment only
Effect of repeated treatments on skin appearance (Human Skin [9]; after micro-needle roller, repeated treatments): appeared to enhance beneficial results
Durometer, Change (increase) (Processed Human Dermis): 5.3% increase
Low Chord Modulus, Change (decrease) (Processed Human Dermis): 50.5% decrease
Thickness, Change (increase) (Processed Human Dermis): 18.3% increase
Water Retention, Change (increase) (Processed Human Dermis): 66.8% increase
Feel of application sites (Human Skin [10]): thicker and softer
Skin smoothness (visual) (Human Skin [10]): minor visual improvement
Skin thickness at the treatment sites (tactile) (Human Skin [10]): tactile increase
